Laboratory results taken from BindingDB's records for patent US20240308985 (Psy Therapeutics, 2024).
pIC50: −log10 of the molar value.

Target: T1, Fatty-acid amide hydrolase 1 (Homo sapiens, UniProt O00519)
T1 sequence (O00519 whole entry): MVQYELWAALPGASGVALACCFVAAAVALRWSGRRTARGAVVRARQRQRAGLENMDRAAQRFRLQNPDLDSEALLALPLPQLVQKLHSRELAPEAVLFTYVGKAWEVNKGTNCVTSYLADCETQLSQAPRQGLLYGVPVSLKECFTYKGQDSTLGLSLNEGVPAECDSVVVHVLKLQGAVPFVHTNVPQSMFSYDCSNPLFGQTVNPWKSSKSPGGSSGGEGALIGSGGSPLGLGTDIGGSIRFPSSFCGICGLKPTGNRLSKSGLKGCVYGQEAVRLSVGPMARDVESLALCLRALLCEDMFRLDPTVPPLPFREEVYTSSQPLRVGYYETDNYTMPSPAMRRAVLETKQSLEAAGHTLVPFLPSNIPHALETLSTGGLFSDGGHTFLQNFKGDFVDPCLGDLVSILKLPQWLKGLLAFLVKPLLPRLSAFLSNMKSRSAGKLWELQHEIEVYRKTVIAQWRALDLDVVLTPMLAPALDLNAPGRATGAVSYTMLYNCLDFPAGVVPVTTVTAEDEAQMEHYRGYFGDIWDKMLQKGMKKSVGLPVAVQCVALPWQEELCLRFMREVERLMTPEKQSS
Experiment: Measuring FAAH Inhibition Potency
Method: MAGL inhibitor compounds were also counter-screened for FAAH inhibition potency using the following assay. Assessment of FAAH inhibition was performed using Fatty Acid Amide Hydrolase Inhibitor Screening Assay Kit (Cayman Item No. 10005196) following manufacture's instruction with some modifications. The kit utilizes human recombinant FAAH and the fluorescent substrate, AMC Arachidonoyl amide (AAMCA). 5 μL of assay buffer (125 mM Tris, pH 9.0, 1 mM EDTA, i.e. ethylenediaminetetraacetic acid) was added to a 384-well black plate (Corning, 3573). Test compounds and control inhibitor JZL-195 (Cayman Chemical, 13668) were tested in 10-concentration IC50 mode with 3-fold serial dilution at a starting concentration of 100 μM and 10 μM, respectively. 300 nL or 30 nL of test compounds were delivered into a 384-well black plate (Corning, 3573) using a Labcyte Echo, followed by addition of 15 μL of FAAH enzyme (Cayman, 700302) in assay buffer. After a 5-minute pre-incubation at room temperature, 10 μL of AAMCA was added in assay buffer to start the reaction. Final concentration of FAAH enzyme is not specified and AAMCA substrate was used at the 20 uM. […] The reaction was allowed to progress for 60 minutes, while the plate was read on an Envision plate reader at an Ex/Em of 350/460 nm with readings every minute. The data was analyzed in Microsoft Excel, using the slope between 30 and 59 minutes. […]

Cc1cc(C2=CC3(C2)CN(C(=O)c2cc(O)ccc2F)C3)n(-c2ccccc2C)n1 [US20240308985, Compound 120]
pIC50: < 5.00
